Measurements reported in the supplement of paper PMC10307832.

Assays:
Assay in all cases: relative viability (nuclei count vs DMSO), 5 days (fraction); higher = more cells survive
AZD5582 = compound: C[C@@H](C(=O)N[C@@H](C1CCCCC1)C(=O)N2CCC[C@H]2C(=O)N[C@@H]3[C@@H](CC4=CC=CC=C34)OCC#CC#CCO[C@@H]5CC6=CC=CC=C6[C@@H]5NC(=O)[C@@H]7CCCN7C(=O)[C@H](C8CCCCC8)NC(=O)[C@H](C)NC)NC [AZD5582]
How it was run: (§1)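 On vehicle-anchored 1536-well plates, lung cancer cell lines held overnight at 37 °C were pinned with five library-drug doses (not always all listed) spaced by √10. With no medium change over 5 days, they were then fixed, permeabilised and Hoechst-stained in one step and imaged at 4×. MetaXpress counted nuclei, and viability is the median across plates of treated-well over vehicle-well nuclei. Acceptance needed control CV below 25% and at least one doubling.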

Temozolomide = compound: Cn1nnc2c(C(N)=O)ncn2c1=O [Temozolomide]
How it was run: as §1

AZD5582 + Alpelisib = compound: C[C@@H](C(=O)N[C@@H](C1CCCCC1)C(=O)N2CCC[C@H]2C(=O)N[C@@H]3[C@@H](CC4=CC=CC=C34)OCC#CC#CCO[C@@H]5CC6=CC=CC=C6[C@@H]5NC(=O)[C@@H]7CCCN7C(=O)[C@H](C8CCCCC8)NC(=O)[C@H](C)NC)NC [AZD5582] + Cc1nc(NC(=O)N2CCC[C@H]2C(N)=O)sc1-c1ccnc(C(C)(C)C(F)(F)F)c1 [Alpelisib] (partner 2 µM)
How it was run: (§2)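 A single step with final 0.05% Triton X-100, 1% formaldehyde and 1 ug/ml Hoechst fixed the cells and stained nuclei 5 days after treatment. Lung cancer cell lines in 1536-well plates had been treated by pin tool the day after seeding with one drug alone or a fixed anchor-drug dose plus five library-drug doses (not always all listed) in √10 steps, and nuclei were counted on 4× images. Relative viability is the ratio of nuclei in treated wells to nuclei in vehicle wells, taken as the median of duplicate plates.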

[1] = compound: Cn1nnc2c(C(N)=O)ncn2c1=O [Temozolomide] + CC(C)C[C@H](NC(=O)[C@H](Cc1ccccc1)NC(=O)c1cnccn1)B(O)O [Bortezomib] (partner 0.002 µM)
How it was run: as §2

Cell Line	relative viability (AZD5582; 0.001581 µM)	relative viability (AZD5582; 0.005 µM)	relative viability (AZD5582; 0.01581 µM)	relative viability (AZD5582; 0.05 µM)	relative viability (Temozolomide; 0.2 µM)	relative viability (Temozolomide; 0.6325 µM)	relative viability (Temozolomide; 2 µM)	relative viability (Temozolomide; 6.325 µM)	relative viability (Temozolomide; 20 µM)	relative viability (AZD5582 + Alpelisib; first compound 0.001581 µM)	relative viability (AZD5582 + Alpelisib; first compound 0.005 µM)	relative viability (AZD5582 + Alpelisib; first compound 0.01581 µM)	relative viability (AZD5582 + Alpelisib; first compound 0.05 µM)	relative viability ([1]; first compound 0.2 µM)	relative viability ([1]; first compound 0.6325 µM)	relative viability ([1]; first compound 2 µM)	relative viability ([1]; first compound 6.325 µM)	relative viability ([1]; first compound 20 µM)
HCC-44	0.822	0.724	0.872	0.483	1.02	0.986	0.987	0.999	1.01	0.683	0.525	0.738	0.368	0.938	0.855	0.869	0.827	0.988
COR-L 105	0.936	1.11	0.876	1.02	0.895	1.02	0.993	0.883	0.507	0.961	0.847	0.981	1.49	0.646	0.683	1.01	0.756	0.32
LCLC-97TM1	0.797	1.06	0.644	0.525	1.15	0.985	0.764	0.83	1.1	–	0.269	0.226	0.23	1.48	0.594	0.749	0.68	0.687
PC-3 [JPC-3]	0.885	0.898	0.9	0.531	0.954	1.08	1.09	1.06	0.451	0.889	0.966	0.999	0.703	0.844	0.781	0.874	0.791	0.418
NCI-H1975	1	1.13	0.944	1.2	1.01	1.01	1.09	0.919	0.957	0.725	0.894	0.611	0.964	0.462	0.418	0.384	0.413	0.298
NCI-H647	0.904	0.971	0.865	0.957	1	1.01	0.906	0.684	0.265	0.957	0.943	1.19	1.11	1.21	0.902	0.836	0.792	0.283
NCI-H838	0.895	1.09	0.785	0.975	0.948	1.02	1.02	0.928	0.986	0.89	0.97	0.907	1.18	0.829	0.929	1.1	0.847	0.832
LCLC-103H	1.02	1.14	0.852	1.01	0.995	1	1.06	0.928	0.92	0.97	1.23	0.471	0.64	1.13	1.09	1.04	1.08	1.01
NCI-H2087	0.98	1.12	0.982	1.03	1.31	1.12	1.07	0.937	1.01	1.08	1.01	1.13	1.19	0.973	0.918	0.738	0.681	0.948
NCI-H322M	1.02	1.15	0.938	1.03	–	0.931	1	0.957	0.577	0.796	1.03	0.515	0.889	–	1.25	1.19	1.2	0.962
PC-14	0.859	1.03	0.926	0.932	1.07	1.03	0.994	0.944	0.529	0.834	1.03	0.927	0.971	0.94	0.872	0.943	0.83	1.04
NCI-H460	0.958	0.991	0.965	1.1	1.02	0.998	1	1.03	1.1	0.401	0.445	0.536	0.621	1.29	1.11	1.02	1.24	1.14
SK-LU-1	0.888	0.777	0.939	0.47	1.09	1.03	0.899	0.554	0.467	0.744	0.554	0.95	0.243	1.33	1.3	1.22	0.53	0.417
H3255	0.94	1	0.862	0.831	–	0.96	0.993	0.884	0.231	0.596	0.587	0.629	0.498	–	0.755	0.849	0.824	0.213
NCI-H1355	0.902	1.01	0.771	0.823	1.01	0.985	1.06	0.947	0.982	0.724	0.832	0.82	0.852	1.34	1.2	1.2	1.09	1.14
NCI-H661	0.984	1	0.984	1.07	0.993	0.935	1.04	0.947	0.843	0.592	0.524	0.557	0.521	–	0.889	0.887	0.844	0.864
EPLC-272H	0.263	–	0.55	0.116	0.98	0.972	0.997	0.859	0.677	0.635	0.506	0.136	0.217	1.02	1.05	0.91	0.832	0.805
